According to article PMC6599804, “N^ɛ-acetyl lysine derivatives with zinc binding groups as novel HDAC inhibitors” (Royal Society Open Science, 2019):
Like-named read-outs stand apart in the source and are kept apart here.

Columns and labels:
[1] = tested on: K562 cells; experiment: MTS cell proliferation assay, K562; type: cell-based, human
Method: (§1) Because of the great anti-tumour potential of HDAC inhibitors, we did the antiproliferative evaluation of 18c against K562 cells, A549 cells and HepG2 cells using MTS assay as previously described. […]
(§2) The rate of cell survival under the action of test substances was evaluated by an improved MTS assay as previously described. In brief, A549 (5000 cells / well) , HepG2 (5000 cells / well), HEK293 (5000 cells / well) and K562 (1 ×10^4 cells/well) cell lines were seeded into 96-well plates in 100 µL medium. After overnight incubation, each well was added with different […]
(§3) 48 hours 5ul of MTS reagent solution was added into each well and the cells were incubated for another 4 hours at 37℃ under 5% CO2 environment. The absorbance was measured at 490 nm in […]
(§4) a Microplate to determine the cell viability. The absorbance was directly proportional to the number of viable cells. All experiments were done in triplicate. […]
(§5) calculate and compare their selective index. […]
(§6) Unbound antibodies

[2] = tested on: HepG2 cells; experiment: MTS cell proliferation assay, HepG2; type: cell-based, human
Method: as §1, §2, §3, §4, §5, §6

[3] = tested on: HDACⅠ; experiment: HDAC subtype selectivity assay with subtype substrate, HDACⅠ; type: biochemical, human; settings: 1μM; Hela nuclear extract; substrate of corresponding subtype
Excerpt: (§7) against both tumor cells and normal cells, then calculate and compare their selective index.” […]
(§8) of Supporting Information.
(§9) Reponses to Reviewer 2’s comments
(§10) Reviewer 2 is also very positive about the manuscript. We thank the reviewer for the helpful comments and careful reading of the manuscript. Our changes and/or responses are detailed below.
(§11) Comment 1: “Should add some discussion about whether the synthesized compounds intend to be pan- or specific- HDAC inhibitors.”
(§12) S1 of Supporting Information.
(§13) Comment 2: “ The cellular data is just described for the acetylation level of tubulin which is only relevant […]
(§14) And then incubation at 37℃ for 1h, the mixture was stopped by the addition of 50 μL of Buffer B (200mM HCl/300 mM Acetic acid), fluorescence intensity was measured using a microplate reader at excitation and emission wavelengths of 360 nm and 460 nm. The inhibition ratios were calculated from the fluorescence intensity readings of tested wells relative to those of control wells, […]
(§15) The rate of cell survival under the action of test substances was evaluated by an improved MTS assay as previously described. […]
as §3

[4] = tested on: HDACⅡa; experiment: HDAC subtype selectivity assay with subtype substrate, HDACⅡa; type: biochemical, human; settings: 1μM; Hela nuclear extract; substrate of corresponding subtype
Excerpt: as §7, §8, §9, §10, §11, §12, §13, §14, §15, §3

[5] = tested on: cellular HDACs in A549 cells; experiment: Western blotting of acetylation levels of histone H3 and α-tubulin in A549 cells; type: cell-based, human; settings: 50, 100 and 200 µM for 24 h
Method: (§16) Therefore, hydroxamic acid 18c was engaged in western blotting analysis to evaluate the acetylation levels of histone H3 and α-tubulin.
(§17) Figure 3. […]
as §4
(§18) calculate and compare their selective index.
(§19) Respectively, A549 and K562 cells were harvested with three different concentrations of […]
(§20) DMEM with 10% FBS (fetal bovine serum) for 24 hours. DMSO was used as the control. Later the cell pellets were collected by centrifuge at 1000 rpm for 5 minutes and then washed by ice-cold PBS (phosphate-buffered saline) twice. The PBS solution was drained and the cell pellets were re-suspended with ice-cold cell lysate buffer (50 mM Tis-HCl PH=7.4, 150 mM NaCl, 1 mM EDTA, 10% glycerin, 1% tirtion 100 and protease inhibitors cocktail) and Vortex blending five times for 30 seconds each over a period of 30 minutes kept on ice. The samples were later centrifuged at 12,000×g for 10 minutes at 4 °C and the supernatants in each tube were collected and placed in a fresh tube kept on ice. BCA (bicinchoninic acid) assay was used to determine the total protein amount. […]
(§21) were removed by washing and a secondary antibody conjugated to an enzyme, a fluorophore was used for detection. The detected signal from the protein: antibody: antibody complex was […]

[6] = tested on: HEK293; experiment: MTS cell proliferation assay, HEK293 (non-cancerous kidney cell); type: cell-based
Method: as §1, §2, §3, §4, §5, §6

[7] = tested on: A549 cells; experiment: MTS cell proliferation assay, A549; type: cell-based, human
Method: as §1, §2, §3, §4, §5, §6

[8] = tested on: cellular HDACs in K562 cells; experiment: Western blotting of acetylation levels of histone H3 and α-tubulin in K562 cells; type: cell-based, human; settings: 50, 100 and 200 µM for 24 h
Method: as §16, §17, §4, §18, §19, §20, §21

[9] = tested on: HDACs (HeLa nuclear extract); experiment: HDAC deacetylation inhibition assay, HeLa nuclear extract with BOC-Ac-Lys-AMC substrate; type: biochemical, human
Method: With these N^ɛ-acetyl lysine derivatives in hand (schemes 1–3), we then did the pilot screening for general HDAC inhibitory activity at a compound's concentration of 100 µM. All tested compounds were subjected to the inhibition assay against the HDAC deacetylation reaction by using a HeLa nuclear extract as a source of HDACs and BOC-Ac-Lys-AMC as a substrate.
HDACS inhibition assay in vitro
In vitro HDACs inhibition assays were conducted as previously described. In brief, 4 μL of […]
(1μL), then fluorogenic substrate Boc-Lys(acetyl)-AMC (100 μM) and Buffer A (50 mM Tis-HCl pH=8.0, 150 mM NaCl, 30 mM KCl, 10 mM MgCl2) were added. After incubation at 37℃ for 1h, […]
as §14
regression analysis of the concentration/inhibition data. All experiments were done in triplicate. […]

[10] = target: T1, HDAC8 (Homo sapiens, UniProt Q9BY41); experiment: HDAC subtype selectivity assay with subtype substrate, HDAC8; type: biochemical; settings: 1μM; Hela nuclear extract; substrate of corresponding subtype; read-out: HDAC Inhibition (%) HDAC8
T1 construct: Hela nuclear extract; endogenous in cells; host or cells: HeLa nuclear extract
T1 sequence (Q9BY41 1-377): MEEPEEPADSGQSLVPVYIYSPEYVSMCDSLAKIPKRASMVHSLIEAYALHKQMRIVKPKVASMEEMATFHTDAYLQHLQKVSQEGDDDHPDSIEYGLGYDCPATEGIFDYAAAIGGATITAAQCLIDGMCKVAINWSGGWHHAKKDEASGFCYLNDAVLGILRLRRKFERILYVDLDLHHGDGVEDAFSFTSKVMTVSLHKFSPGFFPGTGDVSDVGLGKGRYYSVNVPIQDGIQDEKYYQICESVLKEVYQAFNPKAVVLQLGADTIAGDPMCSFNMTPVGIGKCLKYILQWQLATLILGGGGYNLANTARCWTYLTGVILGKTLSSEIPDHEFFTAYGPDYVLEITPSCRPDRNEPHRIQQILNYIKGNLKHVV

[11] = Homo sapiens, MTS assay, 48 hours
[12] = concentration range of 10–500 µM, MTS

IC50 [1, 11]: 41.2 ± 1.73 µM
IC50 [2, 11]: 158 ± 2.2 µM
IC50 [7, 11]: 134 ± 2.13 µM
IC50 ([9]; BOC-Ac-Lys-AMC substrate, read-out: IC50 values, HeLa nuclear extract): 0.5 ± 0.21 µM
IC50 ([9]; as restated in the conclusion, read-out: IC50 value): ~0.5 µM
inhibition at 1 µM [10]: 38.3 ± 1.22%
Structure (SMILES): O=C(CCCCCCC(=O)NCCCC[C@H](NC(=O)OCc1ccccc1)C(=O)Nc1ccccc1)NO [Compound 18c]
concentration showing antiproliferative activity comparable to SAHA (1) at 10 µM ([1]; MTS): 50 to 100 µM
antiproliferative activity [1, 12]: dose-dependent manner
concentration showing antiproliferative activity comparable to SAHA (1) at 10 µM ([2]; MTS): 200 µM
antiproliferative activity [2, 12]: dose-dependent manner
HDAC Inhibition (%) HDACⅠ [3]: 61.06±1.064%
HDAC Inhibition (%) HDACⅡa [4]: 16.65±2.690%
acetylation levels of histone H3 and α-tubulin [5]: dose-dependent increase
IC50 ([6]; Homo sapiens, HEK293, MTS assay, 48 hours, normal cells): > 500 µM
selectivity index (SI) ([6]; normal cells (HEK293) versus tumor cells (K562, A549, HepG2) IC50s): 3.16~12.14
toxicity in non-cancerous kidney cell (HEK293) compared with SAHA (1) ([6]; same concentrations (5 µM and 10 µM), MTS): less toxicity
concentration showing antiproliferative activity comparable to SAHA (1) at 10 µM ([7]; MTS): 50 to 100 µM
antiproliferative activity [7, 12]: dose-dependent manner
acetylation levels of histone H3 and α-tubulin [8]: dose-dependent increase
HDAC inhibition (%) ([9]; compound at 100 µM, BOC-Ac-Lys-AMC substrate): 109.2 ± 0.5%
